This assay can be described thus: Compound was evaluated for its inhibitory activity against Serine protease chymotrypsin.

On to `CC1CNc2c(cccc2S(=O)(=O)N[C@@H](Cc2nc3ccccc3s2)C(=O)N2CCC(CCO)CC2)C1` (stereo partly drawn) [3-Methyl-1,2,3,4-tetrahydro-quinoline-8-sulfonic acid {(S)-1-benzothiazol-2-ylmethyl-2-[4-(2-hydroxy-ethyl)-piperidin-1-yl]-2-oxo-ethyl}-amide], for which the Ki worked out at 7.55 µM. `CCC1CCN(C(=O)C(Cc2nc3ccccc3s2)NS(=O)(=O)c2cccc3c2NCC(C)(C)C3)CC1` (configuration not stated) [MD805 Analogue] displayed a Ki of 4.91 µM. Against the preceding compound, the Ki is about 1.5-fold lower.

For orientation: Ki means a dissociation constant, usually derived from enzyme kinetics or from competition with a known ligand.

Source of the values: BindingDB's records for doi:10.1016/s0960-894x(00)00282-1 (Novartis Horsham Research Centre, 2000).
